Where two headings read alike, the source gives them in different places.
What was measured:
[1] = biological target: T1, Drosophila OR49b (Drosophila melanogaster, UniProt Q9V6H2); assay: cell-based; conditions: for activation at 1 µM / activation at 10 µM / activation at 100 µM: HEK293; for Average response / OR49b response (VUAA1-normalized) at 1 μM / OR49b response (VUAA1-normalized) at 10 μM / OR49b response (VUAA1-normalized) at 100 μM: OR49b cell line; for Average response: mean of biological replicates
T1 construct: expressed in transfected cells
T1 sequence (Q9V6H2 1-375): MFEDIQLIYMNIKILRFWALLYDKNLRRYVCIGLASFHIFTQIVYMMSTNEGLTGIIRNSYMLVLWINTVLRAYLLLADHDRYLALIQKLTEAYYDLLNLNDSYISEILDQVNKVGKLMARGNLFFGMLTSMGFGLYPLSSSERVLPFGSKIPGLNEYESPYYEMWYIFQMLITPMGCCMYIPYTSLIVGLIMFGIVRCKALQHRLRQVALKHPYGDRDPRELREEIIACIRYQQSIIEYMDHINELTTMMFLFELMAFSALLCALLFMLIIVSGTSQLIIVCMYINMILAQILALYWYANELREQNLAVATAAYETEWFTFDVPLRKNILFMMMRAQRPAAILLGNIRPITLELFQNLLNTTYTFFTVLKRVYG
T1 sequence (Q9VNB5 1-486 partner): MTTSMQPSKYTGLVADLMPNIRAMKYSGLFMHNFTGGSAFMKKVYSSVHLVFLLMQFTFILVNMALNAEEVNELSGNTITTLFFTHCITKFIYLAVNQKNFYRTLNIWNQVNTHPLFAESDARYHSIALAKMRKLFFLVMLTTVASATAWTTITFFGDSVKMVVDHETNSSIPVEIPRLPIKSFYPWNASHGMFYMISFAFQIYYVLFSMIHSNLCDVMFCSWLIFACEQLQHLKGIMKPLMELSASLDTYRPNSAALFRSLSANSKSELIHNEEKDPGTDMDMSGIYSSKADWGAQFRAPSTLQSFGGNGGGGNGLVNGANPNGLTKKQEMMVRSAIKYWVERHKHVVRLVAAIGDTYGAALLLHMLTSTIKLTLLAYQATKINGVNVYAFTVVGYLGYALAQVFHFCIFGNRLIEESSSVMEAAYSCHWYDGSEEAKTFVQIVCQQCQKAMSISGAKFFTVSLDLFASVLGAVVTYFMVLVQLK
Summary of the method: (§1)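 Responses are VUAA1-normalized ΔF: each VOC-evoked calcium signal, (FMAX−F0)/F0 over 30 s after injection, divided by the same line's mean 50 µM VUAA1 response. Cells were doxycycline-induced HEK293 with GCaMP6 and the cognate Drosophila OR, in HEPES buffer pH 7.3; ligands tested 0.01–100 μM.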

[2] = biological target: T2, Drosophila OR71a (Drosophila melanogaster, UniProt Q9VUK5); assay: Calcium ion fluorescence (GCaMP6) assay, OR71a stable HEK293 cell line; assay type: cell-based; conditions: for activation at 1 µM / activation at 10 µM / activation at 100 µM: HEK293, read-out: OR71a response (VUAA1-normalized response); for Average response / OR71a response (VUAA1-normalized) at 1 μM / OR71a response (VUAA1-normalized) at 10 μM / OR71a response (VUAA1-normalized) at 100 μM: OR71a cell line; for Average response: VUAA1-normalized response, mean of biological replicates; for OR71a Average response (VUAA1-normalized): 50 μM VUAA1 = 1
T2 construct: expressed in transfected cells
T2 sequence (Q9VUK5 1-378): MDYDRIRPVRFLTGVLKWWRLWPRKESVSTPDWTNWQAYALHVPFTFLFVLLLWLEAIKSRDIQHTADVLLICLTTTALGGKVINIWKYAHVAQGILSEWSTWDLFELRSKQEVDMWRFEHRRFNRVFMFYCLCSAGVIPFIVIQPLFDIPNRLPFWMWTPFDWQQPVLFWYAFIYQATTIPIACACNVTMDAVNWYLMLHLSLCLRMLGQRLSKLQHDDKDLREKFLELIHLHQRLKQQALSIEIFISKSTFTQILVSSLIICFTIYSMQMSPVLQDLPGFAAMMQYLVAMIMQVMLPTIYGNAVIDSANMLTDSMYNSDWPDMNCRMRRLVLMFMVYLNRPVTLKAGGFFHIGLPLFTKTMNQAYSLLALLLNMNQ
T2 sequence (Q9VNB5 1-486 partner): T1 sequence (Q9VNB5 1-486 partner)
Summary of the method: as §1

[3] = VOC concentration 1 μM, read-out: OR49b response (VUAA1-normalized response)
[4] = VOC concentration 10 μM, read-out: OR49b response (VUAA1-normalized response)
[5] = VOC concentration 100 μM, read-out: OR49b response (VUAA1-normalized response)
[6] = ligand concentration 1 (unit not given), threshold 0.05, below shown as 0
[7] = ligand concentration 10 (unit not given), threshold 0.05, below shown as 0
[8] = ligand concentration 100 (unit not given), threshold 0.05, below shown as 0
[9] = 1 μM VOC, 50 μM VUAA1 = 1, read-out: OR49b Average response (VUAA1-normalized)
[10] = 10 μM VOC, 50 μM VUAA1 = 1, read-out: OR49b Average response (VUAA1-normalized)
[11] = 100 μM VOC, 50 μM VUAA1 = 1, read-out: OR49b Average response (VUAA1-normalized)
[12] = ligand concentration 1 (unit not given), 0.05 threshold, values below shown as 0
[13] = ligand concentration 10 (unit not given), 0.05 threshold, values below shown as 0
[14] = ligand concentration 100 (unit not given), 0.05 threshold, values below shown as 0

Row | SMILES | activation at 1 µM [1, 3] [%] | activation at 10 µM [1, 4] [%] | activation at 100 µM [1, 5] [%] | Average response ([1]; odorant cc. 1 µM) | Average response ([1]; odorant cc. 10 µM) | Average response ([1]; odorant cc. 100 µM) | DF norm AVERAGE OR49b [1, 6] | DF norm AVERAGE OR49b [1, 7] | DF norm AVERAGE OR49b [1, 8] | activation at 1 µM [2] [%] | activation at 10 µM [2] [%] | activation at 100 µM [2] [%] | Average response ([2]; cc. 1 µM) | Average response ([2]; cc. 10 µM) | Average response ([2]; cc. 100 µM) | DF norm AVERAGE OR71a [2, 6] | DF norm AVERAGE OR71a [2, 7] | DF norm AVERAGE OR71a [2, 8] | OR49b response (VUAA1-normalized) at 1 μM ([1]; VOC concentration 1 μM) | OR49b response (VUAA1-normalized) at 10 μM ([1]; VOC concentration 10 μM) | also measured
1 | CC1=CC[C@@H](C(C)(C)O)CC1 [alpha-terpineol] | 0 | 0 | 0 | 0.00 | 0.00 | 0.0245 | 0 | 0 | 0 | 0 | 0 | 0 | 0.00 | 0.00 | 0.04 | 0 | 0 | 0 |  |  | 
2 | Cc1ccc(C)cc1 [p-xylene] |  |  |  | 0.00 | 0.033 | 0.38 | 0 | 0 | 0.379 |  |  |  | 0.00 | 0.06 | 0.00 | 0 | 0.0615 | 0 | 0.00 | 0.00 | activation at 1 µM [1, 9]: 0%; activation at 10 µM [1, 10]: 3%; activation at 100 µM [1, 11]: 38%; OR49b response (VUAA1-normalized) at 100 μM ([1]; VOC concentration 100 μM): 0.38; OR71a response (VUAA1-normalized) at 1 μM ([2]; VOC concentration 1 μM): 0.00; OR71a response (VUAA1-normalized) at 10 μM ([2]; VOC concentration 10 μM): 0.06; OR71a response (VUAA1-normalized) at 100 μM ([2]; VOC concentration 100 μM): 0.00
3 | C=CC(C)(O)CCC=C(C)C (stereo not drawn) [linalool] |  |  |  | 0.00 | 0.00 | 0.0212 | 0 | 0 | 0 |  |  |  | 0.00 | 0.0443 | 0.0124 | 0 | 0 | 0 | 0.00 | 0.00 | OR49b response (VUAA1-normalized) at 100 μM ([1]; VOC concentration 100 μM): 0.00; OR71a response (VUAA1-normalized) at 1 μM ([2]; VOC concentration 1 μM): 0.00; OR71a response (VUAA1-normalized) at 10 μM ([2]; VOC concentration 10 μM): 0.00; OR71a response (VUAA1-normalized) at 100 μM ([2]; VOC concentration 100 μM): 0.00
4 | CCOC(=O)c1ccccc1 [ethyl benzoate] | 6 | 0 | 0 | 0.06 | 0.0464 | 0.0169 | 0.05937 | 0 | 0 | 0 | 5.54 | 11 | 0.04 | 0.0554 | 0.11 | 0 | 0.05543 | 0.1075 |  |  | OR71a Average response (VUAA1-normalized) ([2]; 1 μM VOC): 0.04; OR71a Average response (VUAA1-normalized) ([2]; 10 μM VOC): 0.06; OR71a Average response (VUAA1-normalized) ([2]; 100 μM VOC): 0.11
5 | CC/C=C\CCO [Z3-hexenol] |  |  |  | 0.0226 | 0.00 | 0.00 |  |  |  |  |  |  | 0.00 | 0.0174 | 0.00 |  |  |  |  |  | DF norm AVERAGE OR49b [1, 12]: 0; DF norm AVERAGE OR49b [1, 13]: 0; DF norm AVERAGE OR49b [1, 14]: 0; DF norm AVERAGE OR71a [2, 12]: 0; DF norm AVERAGE OR71a [2, 13]: 0; DF norm AVERAGE OR71a [2, 14]: 0
6 | Cc1ccccc1 [toluene] |  |  |  | 0.00 | 0.00 | 0.44 |  |  |  |  |  |  | 0.00 | 0.00 | 0.00 |  |  |  | 0.00 | 0.00 | activation at 1 µM [1, 9]: 0%; activation at 10 µM [1, 10]: 0%; activation at 100 µM [1, 11]: 44%; OR49b response (VUAA1-normalized) at 100 μM ([1]; VOC concentration 100 μM): 0.44; DF norm AVERAGE OR49b [1, 12]: 0; DF norm AVERAGE OR49b [1, 13]: 0; DF norm AVERAGE OR49b ([1]; ligand concentration 100 (unit not given), […]): 0.4351; OR71a response (VUAA1-normalized) at 1 μM ([2]; VOC concentration 1 μM): 0.00; OR71a response (VUAA1-normalized) at 10 μM ([2]; VOC concentration 10 μM): 0.00; OR71a response (VUAA1-normalized) at 100 μM ([2]; VOC concentration 100 μM): 0.00; DF norm AVERAGE OR71a [2, 12]: 0; DF norm AVERAGE OR71a [2, 13]: 0; DF norm AVERAGE OR71a [2, 14]: 0
7 | CC(C)=CCC/C(C)=C/CC/C(C)=C/CO [e,e-farnesol] |  |  |  | 0.00 | 0.06 | 0.00 | 0 | 0.06141 | 0 |  |  |  | 0.00 | 0.0452 | 0.00 | 0 | 0 | 0 |  |  | OR49b response (VUAA1-normalized response) ([1]; VOC concentration 1 μM): 0.00; OR49b response (VUAA1-normalized response) ([1]; VOC concentration 10 μM): 0.06; OR49b response (VUAA1-normalized response) ([1]; VOC concentration 100 μM): 0.00; OR71a response (VUAA1-normalized response) ([2]; VOC concentration 1 μM): 0.00; OR71a response (VUAA1-normalized response) ([2]; VOC concentration 10 μM): 0.00; OR71a response (VUAA1-normalized response) ([2]; VOC concentration 100 μM): 0.00
8 | CCCCCC(=O)OCC [ethyl hexanoate] | 0 | 0 | 0 | 0.00 | 0.00 | 0.00 | 0 | 0 | 0 | 0 | 0 | 0 | 0.0156 | 0.0153 | 0.00 | 0 | 0 | 0 |  |  | 
9 | C=C1[C@H]2CC[C@@H]3[C@H]2C(C)(C)CCC[C@]13C [(+)-longifolene] |  |  |  | 0.08 | 0.00 | 0.00 |  |  |  |  |  |  | 0.00 | 0.03 | 0.0431 |  |  |  |  |  | OR49b response (VUAA1-normalized response) ([1]; VOC concentration 1 μM): 0.08; OR49b response (VUAA1-normalized response) ([1]; VOC concentration 10 μM): 0.00; OR49b response (VUAA1-normalized response) ([1]; VOC concentration 100 μM): 0.00; OR71a response (VUAA1-normalized response) ([2]; VOC concentration 1 μM): 0.00; OR71a response (VUAA1-normalized response) ([2]; VOC concentration 10 μM): 0.00; OR71a response (VUAA1-normalized response) ([2]; VOC concentration 100 μM): 0.00; DF norm AVERAGE OR71a ([2]; concentration 1, normalized fluorescence change, values below 0.05 threshold given as 0): 0; DF norm AVERAGE OR71a ([2]; concentration 10, normalized fluorescence change, values below 0.05 threshold given as 0): 0; DF norm AVERAGE OR71a ([2]; concentration 100, normalized fluorescence change, values below 0.05 threshold given as 0): 0

From paper PMC10709440, “High-throughput ligand profile characterization in novel cell lines expressing seven heterologous insect olfactory receptors for the detection of volatile plant biomarkers” (Scientific Reports, 2023)
